Patent US20080026474A1, “ASSAY FOR DIFFERENTIATING COMPOUNDS THAT MODULATE THE EXTRINSIC AND/OR INTRINSIC COAGULATION PATHWAYS” (Bristol-Myers Squibb Company, priority 2006, published 2008)
Entries after “also recorded” stand apart in the source; their conditions may differ.

Columns and labels:
[1] = tested on: TF-induced platelet aggregation in human platelet-rich plasma; assay: TF-induced platelet aggregation assay (time delay / lag time) in human platelet-rich plasma; type: cell-based; conditions: human PRP; for 2×Base value (concentration required to double the time for TF-induced platelet aggregation): time delay of TF-induced platelet aggregation; for time delay of platelet aggregation: 0 μM = 75 seconds
Procedure: The remaining samples were then centrifuged at […] for 10 min to obtain platelet-poor plasma (PPP). Platelet count was adjusted to 2-2.5×10^8 cells/ml with platelet-poor plasma.
PRP (275 μl) sample was briefly mixed with 25 μl of 36 mg/ml pefabloc. Various compounds (in a volume of 1.2 μl) were added and incubated at 37° C. for 3 min in a cylindrical glass cuvette. Platelet aggregation was induced by 4 μl of Innovin®-CaCl2 mixture and measured under continuous stirring at 1000 rpm in a PA-200 platelet aggregation analyzer (Kowa, Tokyo, Japan). Platelet-poor plasma was used as a reference. Platelet aggregation curves defined by changes in light transmission over time were recorded for 15 min. The lag time was defined as the time from CaCl2 addition until the light transmittance reached 1%. The concentration of Innovin® and CaCl2 was adjusted for each sample so that the average control lag time was from 50 to 70 seconds.

[2] = tested on: thrombus formation in carotid artery; assay: Rabbit ECAT model; type: in vivo; conditions: i.v. infusion, drug concentration maintaining total blood flow at 80% of baseline
Procedure: Briefly, male, New Zealand, white rabbits were anesthetized with ketamine (50 mg/kg+50 mg/kg/h i.m.) and xylazine (10 mg/kg+10 mg/kg/h i.m.). These anesthetics were supplemented as needed. An electromagnetic flow probe was placed on a segment of an isolated carotid artery to monitor blood flow. Thrombus formation was induced by electrical stimulation of the carotid artery for 3 min at 4 mA using an external stainless steel bipolar electrode. […] Plasma concentrations were determined in blood samples taken at the end of the experiment by liquid chromatography-tandem mass spectrometry.
Carotid blood flow was measured continuously over the 90-min period of thrombus formation and total carotid blood flow was calculated as an area under the carotid blood flow-time curve. Preservation of total CBF relative to sustained baseline flow was used to assess antithrombotic activity. The drug concentrations which maintained total blood flow at 80% of baseline (ED80) was the common comparator among antithrombotic agents.

Compound	effect on the time delay of TF-induced platelet aggregation (in words) [1]	2×Base value (concentration required to double the time for TF-induced platelet aggregation) [1]	ED80 [2]	other results
CC(C)CC(=O)Nc1cc(-c2ccc(C(N)=O)cc2C(=O)O)cc([C@@H]2C[C@](C)(c3ccccc3)c3cc(C(=N)N)ccc3N2)c1 [Compound C, 3′-((2S,4R)-6-Carbamimidoyl-4-methyl-4-phenyl-1,2,3,4-tetrahydro-quinolin-2-yl)-4-carbamoyl-5′-(3-methyl-butyrylamino)-biphenyl-2-carboxylic acid]	barely showed any effect; also recorded: No effect	26 µM	800 nM	effect on TF-induced platelet aggregation at high dose (in words) ([1]; 40 μM): weak efficacy
CS(=O)(=O)c1ccccc1-c1ccc(NC(=O)c2cc(C(F)(F)F)nn2-c2cccc(CN)c2)c(F)c1 [Compound B, 1-[3-(aminomethyl)phenyl]-N-[3-fluoro-2′-(methylsulfonyl)[1,1′-biphenyl]-4-yl]-3-(trifluoromethyl)-1H-pyrazole-5-carboxamide]	–	–	400 nM	–
CC(C)(C)c1ccccc1Oc1ncccc1NC(=O)Nc1ccc(OC(F)(F)F)cc1 [Compound F, 1-[2-(2-tert-Butyl-phenoxy)-pyridin-3-yl]-3-(4-trifluoromethoxy-phenyl)-urea]	no effect	~0 µM	–	–
CSCCNc1nc(SCCC(F)(F)F)nc2c1ncn2[C@@H]1O[C@H](COP(=O)(O)OP(=O)(O)C(Cl)(Cl)P(=O)(O)O)[C@@H](O)[C@H]1O [cangrelor, reference compound]	no effect	–	–	–
CNc1ncnc2c1ncn2[C@H]1C[C@H](OP(=O)(O)O)[C@@H](COP(=O)(O)O)O1 [N6-methyl-2′-deoxyadenosine-3′,5′-bisphosphate, reference compound]	no effect	–	–	–
COc1cc([C@@H]2Nc3ccc(C(=N)N)cc3[C@H]3c4ccccc4C[C@H]32)c(-c2ccc(C(=O)O)cc2)cc1O [Compound A, 2′-((6R,6aR,11bR)-2-Carbamimidoyl-5,6a,7,11b-tetrahydro-6H-indeno[2,1-c]quinolin-6-yl)-5′-hydroxy-4′-methoxy-biphenyl-4-carboxylic acid]	concentration-dependent effect; also recorded: Dose-dependent effect	1.25 µM	1100 nM	time delay of platelet aggregation ([1]; 1.26 μM): 175 s; time delay of platelet aggregation ([1]; 4.0 μM): 286 s; time delay of platelet aggregation ([1]; 12.6 μM): 671 s; time delay of platelet aggregation ([1]; 25.2 μM): 865 s
NCc1ccccc1-n1nc(C(F)(F)F)cc1C(=O)Nc1ccc(-c2ccccc2S(N)(=O)=O)cc1F [1-(2-aminomethylphenyl)-3-trifluoromethyl-N-[3-fluoro-2′-(aminosulfonyl)[1,1′-biphenyl)]-4-yl]-1H-pyrazole-5-carboxyamide]	dose-dependent effects	–	–	–
